Article PMC6175941, “Hydrophobic alkyl chains substituted to the 8-position of cyclic nucleotides enhance activation of CNG and HCN channels by an intricate enthalpy - entropy compensation” (Scientific Reports, 2018)
pEC50: −log10 of the molar value.

Key:
Assay type in all cases: cell-based
[1] = target: T1, homotetrameric HCN2 channels (Mus musculus, UniProt O88703); assay: Concentration-activation relationship of homotetrameric HCN2 channels, inside-out patches of Xenopus oocytes; details: for H (Hill coefficient) / pEC50: homotetrameric HCN2 channels, mean; for pEC50: pre-activation at -130 mV, instantaneous current at -100 mV
T1 construct: expressed in transfected cells; host or cells: Xenopus laevis oocytes injected with cRNA; inside-out patches
T1 sequence (O88703 1-863): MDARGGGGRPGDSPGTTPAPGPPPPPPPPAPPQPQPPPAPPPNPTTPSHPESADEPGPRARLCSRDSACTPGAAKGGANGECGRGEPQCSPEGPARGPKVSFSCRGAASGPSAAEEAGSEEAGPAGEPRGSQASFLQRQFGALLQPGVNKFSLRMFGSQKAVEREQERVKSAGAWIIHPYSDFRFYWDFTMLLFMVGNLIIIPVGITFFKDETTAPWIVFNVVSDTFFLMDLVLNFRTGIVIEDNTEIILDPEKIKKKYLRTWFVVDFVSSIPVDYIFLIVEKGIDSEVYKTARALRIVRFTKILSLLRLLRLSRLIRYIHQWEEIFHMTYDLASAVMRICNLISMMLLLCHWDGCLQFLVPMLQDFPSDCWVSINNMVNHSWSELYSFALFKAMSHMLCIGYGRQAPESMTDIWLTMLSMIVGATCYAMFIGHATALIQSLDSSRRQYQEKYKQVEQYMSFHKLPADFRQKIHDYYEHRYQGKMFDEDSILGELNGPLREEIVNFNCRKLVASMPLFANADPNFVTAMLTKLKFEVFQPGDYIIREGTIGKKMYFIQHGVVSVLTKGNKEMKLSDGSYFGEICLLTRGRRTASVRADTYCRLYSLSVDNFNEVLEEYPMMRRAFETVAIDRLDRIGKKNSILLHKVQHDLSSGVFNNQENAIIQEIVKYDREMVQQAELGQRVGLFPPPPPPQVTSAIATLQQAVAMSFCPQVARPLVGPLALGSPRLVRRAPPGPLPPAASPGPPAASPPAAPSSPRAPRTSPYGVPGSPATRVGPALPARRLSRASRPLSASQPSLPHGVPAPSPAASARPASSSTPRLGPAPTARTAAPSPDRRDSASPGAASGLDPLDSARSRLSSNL
Protocol: (§1) The subunits CNGA2 (accession No. AF126808), CNGA4 (accession No. U12623) and CNGB1b (accession No. AF068572) of rat olfactory channels as well as mouse HCN2 channels (NM008226) were subcloned in front of the T7 promoter of pGEMHEnew. The respective cRNAs were produced by using the mMESSAGE mMACHINE T7 Kit (Ambion, Austin, TX).
(§2) The oocytes were exposed to collagenase A (3 mg/ml; Roche, Grenzach-Wyhlen, Germany) for 105 min in Ca^2+-free Barth’s solution containing (in mM) 82.5 NaCl, 2 KCl, 1 MgCl2 2, and 5 Hepes, pH 7.4. Oocytes at stages IV and V were injected with 50–130 ng of cRNA encoding either CNGA2, CNGA2:CNGA4:CNGB1b (2:1:1 ratio) or HCN2 channels either manually of or by means of an injection robot (RoboInject®). The injected oocytes were incubated at 18 °C for up to 6 days in Barth’s solution containing (in mM) 84 NaCl, 1 KCl, 2.4 NaHCO3, 0.82 MgSO4, 0.41 CaCl2, 0.33 Ca(NO3)2, 7.5 TRIS, cefuroxime (4.0 µg × ml^−1), and penicillin/streptomycin (100 µg × ml^−1), pH 7.4.
(§3) Macroscopic currents were recorded from inside-out patches of the oocytes by using standard patch-clamp techniques. The patch pipettes were pulled from quartz tubing (P-2000, Sutter Instrument, Novato, USA) with an outer and inner diameter of 1.0 and 0.7 mm (VITROCOM, New Jersey, USA). The corresponding pipette resistance was 0.9–2.3 MΩ. The bath and pipette solution contained (in mM): 150 KCl, 1 EGTA, 5 Hepes (pH 7.4 with KOH) for CNG measurements. For HCN measurements the bath solution contained 100 mM KCl, 10 mM EGTA, 10 mM HEPES (pH 7.2) and 120 mM KCl, 10 mM HEPES, and 1.0 mM CaCl2 (pH 7.2) in the pipette. Recording was carried out at room temperature using an Axopatch 200B amplifier (Axon Instruments, Foster City, CA). Electrophysiology was controlled by the Patchmaster-software (HEKA Elektronik Dr. Schulze GmbH, Lambrecht, Germany). The sampling rate was 5 kHz and the filter implemented in the amplifier (4-pole Bessel) was set to 2 kHz. Measurements in HCN2 channels were generally started 3.5 min after patch excision to minimize channel run down during the measurement[14],[27],[70]. The solutions with the ligand concentrations to be tested were applied via a multi-barrel device to the patches with a flow rate of 0.8 to 1.2 ml/min.
(§4) I is the actual current amplitude and Imax the maximum current amplitude at a saturating cNMP concentration specified for each cNMP and channel. EC50 is the cNMP concentration generating the half maximum current and H the Hill coefficient.

[2] = target: T2, homotetrameric CNGA2 channels (Rattus norvegicus, UniProt Q00195); assay: Concentration-activation relationship of homotetrameric CNGA2 channels, inside-out patches of Xenopus oocytes
T2 construct: expressed in transfected cells; host or cells: Xenopus laevis oocytes injected with cRNA; inside-out patches
T2 sequence (Q00195 1-664): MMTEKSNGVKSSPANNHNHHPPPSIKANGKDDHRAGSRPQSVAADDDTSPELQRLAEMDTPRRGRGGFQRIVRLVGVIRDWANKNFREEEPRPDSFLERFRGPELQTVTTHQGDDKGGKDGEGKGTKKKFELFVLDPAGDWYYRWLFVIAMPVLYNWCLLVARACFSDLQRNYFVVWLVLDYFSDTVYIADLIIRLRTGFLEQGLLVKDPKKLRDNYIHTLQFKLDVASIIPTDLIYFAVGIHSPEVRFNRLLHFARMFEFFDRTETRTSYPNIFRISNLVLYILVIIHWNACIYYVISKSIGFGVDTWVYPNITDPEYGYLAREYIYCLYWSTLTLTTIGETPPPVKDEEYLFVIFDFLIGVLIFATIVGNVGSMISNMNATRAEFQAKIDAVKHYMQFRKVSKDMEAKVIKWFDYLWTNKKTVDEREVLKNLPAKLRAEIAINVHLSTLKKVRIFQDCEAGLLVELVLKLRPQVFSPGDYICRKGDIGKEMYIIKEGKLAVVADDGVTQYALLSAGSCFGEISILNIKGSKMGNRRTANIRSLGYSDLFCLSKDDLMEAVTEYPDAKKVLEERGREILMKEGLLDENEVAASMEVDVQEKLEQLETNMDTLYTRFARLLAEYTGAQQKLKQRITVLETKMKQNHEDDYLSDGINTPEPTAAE
Protocol: (§5) For each cNMP derivative a complete concentration-activation relationship was recorded, and the data points were fitted with the Hill equation (equation 1) yielding the concentration of half maximum activation (EC50) and the Hill coefficient H (Fig. 1b,c).
as §1
as §2, with “Oocytes” for “The oocytes were exposed to collagenase A (3 mg/ml; Roche, Grenzach-Wyhlen, Germany) for 105 min in Ca^2+-free Barth’s solution containing (in mM) 82.5 NaCl, 2 KCl, 1 MgCl2 2, and 5 Hepes, pH 7.4. Oocytes”
as §3, §4

[3] = target: T3, heterotetrameric CNGA2:CNGA4:CNGB1b channels (Rattus norvegicus, UniProt A0A8I5ZN27+Q00195+Q64359); assay: Concentration-activation relationship of heterotetrameric CNGA2:CNGA4:CNGB1b channels, inside-out patches of Xenopus oocytes
T3 construct: expressed in transfected cells; host or cells: Xenopus laevis oocytes co-injected with cRNAs (2:1:1); inside-out patches
T3 sequence (Q64359 whole entry, one chain of several): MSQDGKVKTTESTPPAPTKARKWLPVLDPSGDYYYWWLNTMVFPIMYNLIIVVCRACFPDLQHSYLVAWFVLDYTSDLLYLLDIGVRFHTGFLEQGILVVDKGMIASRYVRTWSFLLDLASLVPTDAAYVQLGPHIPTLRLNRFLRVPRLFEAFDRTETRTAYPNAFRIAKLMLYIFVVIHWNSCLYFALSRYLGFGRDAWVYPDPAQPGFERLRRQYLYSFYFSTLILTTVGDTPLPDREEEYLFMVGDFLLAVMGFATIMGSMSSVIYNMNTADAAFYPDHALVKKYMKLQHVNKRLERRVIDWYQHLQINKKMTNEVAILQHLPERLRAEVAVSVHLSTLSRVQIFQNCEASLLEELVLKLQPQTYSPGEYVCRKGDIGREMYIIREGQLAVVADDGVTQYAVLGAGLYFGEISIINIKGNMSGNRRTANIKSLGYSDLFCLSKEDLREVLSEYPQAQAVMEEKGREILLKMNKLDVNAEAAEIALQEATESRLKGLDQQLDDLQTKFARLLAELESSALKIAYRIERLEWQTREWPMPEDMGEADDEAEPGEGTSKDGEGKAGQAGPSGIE
T3 sequence (A0A8I5ZN27 1-858 isoform A0A8I5ZN27-2, one chain of several): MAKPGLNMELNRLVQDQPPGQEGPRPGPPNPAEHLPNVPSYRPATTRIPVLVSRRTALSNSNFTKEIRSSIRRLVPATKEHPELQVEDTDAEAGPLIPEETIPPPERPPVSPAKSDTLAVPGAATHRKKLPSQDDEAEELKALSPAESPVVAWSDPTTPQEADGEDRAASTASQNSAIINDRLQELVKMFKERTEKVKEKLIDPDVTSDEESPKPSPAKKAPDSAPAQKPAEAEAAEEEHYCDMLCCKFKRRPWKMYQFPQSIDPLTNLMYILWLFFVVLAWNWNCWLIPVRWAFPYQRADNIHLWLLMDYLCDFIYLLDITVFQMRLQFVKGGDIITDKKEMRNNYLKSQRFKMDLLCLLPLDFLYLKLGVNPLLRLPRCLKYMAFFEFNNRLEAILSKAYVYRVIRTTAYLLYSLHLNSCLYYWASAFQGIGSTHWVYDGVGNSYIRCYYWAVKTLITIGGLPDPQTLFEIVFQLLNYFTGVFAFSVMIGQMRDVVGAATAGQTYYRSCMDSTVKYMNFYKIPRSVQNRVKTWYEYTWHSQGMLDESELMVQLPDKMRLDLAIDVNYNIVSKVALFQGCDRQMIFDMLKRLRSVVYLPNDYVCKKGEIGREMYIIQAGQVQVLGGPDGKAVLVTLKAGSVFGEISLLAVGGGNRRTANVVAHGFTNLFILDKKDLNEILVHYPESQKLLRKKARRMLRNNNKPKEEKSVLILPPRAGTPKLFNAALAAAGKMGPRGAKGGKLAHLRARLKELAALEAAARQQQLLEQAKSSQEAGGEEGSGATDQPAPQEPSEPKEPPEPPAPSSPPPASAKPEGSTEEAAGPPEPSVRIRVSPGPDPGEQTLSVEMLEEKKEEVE
Protocol: as §5, §1
as §2, with “Oocytes” for “The oocytes were exposed to collagenase A (3 mg/ml; Roche, Grenzach-Wyhlen, Germany) for 105 min in Ca^2+-free Barth’s solution containing (in mM) 82.5 NaCl, 2 KCl, 1 MgCl2 2, and 5 Hepes, pH 7.4. Oocytes”
as §3, §4

[4] = fit of the concentration-activation relationship shown in Fig. 1b, CNGA2 channels
[5] = homotetrameric CNGA2 channels, late current at +10 mV, mean
[6] = homotetrameric CNGA2 channels, mean
[7] = fit of the concentration-activation relationship shown in Fig. 1c, CNGA2:CNGA4:CNGB1b channels
[8] = heterotetrameric CNGA2:CNGA4:CNGB1b channels, late current at +10 mV, mean
[9] = heterotetrameric CNGA2:CNGA4:CNGB1b channels, mean
[10] = CNGA2 channels, numeric mean values of box plots (Fig. 2a,b, Fig. 3) and text

Row | Structure (SMILES) | pEC50 [2, 5] | H (Hill coefficient) [2, 6] | pEC50 [3, 8] | H (Hill coefficient) [3, 9] | further results
1 | Nc1ncnc2c1ncn2C1OC2COP(=O)(O)OC2C1O (stereo not shown) [1A, cAMP, reference compound] |  |  |  |  | H ([1]; individual experiment, Fig. 5b, HCN2 channels): 1.28
2 | Nc1nc2c(ncn2C2OC3COP(=O)(O)OC3C2O)c(=O)[nH]1 (stereo not shown) [1G, cGMP, reference compound] | 5.74 | 2.6 | 5.89 | 2.5 | pEC50 [2, 4]: 5.83; H [2, 4]: 2.52; pEC50 [3, 7]: 5.91; H [3, 7]: 2.09
3 | NCCSc1nc2c(N)ncnc2n1C1OC2COP(=O)(O)OC2C1O (stereo not shown) [2A, 8-AET-cAMP] |  | 1.8 | 4.88 |  | agonist type ([2]; CNGA2 channels): partial agonist; pEC50 [2, 10]: 3.89
4 | NCCSc1nc2c(=O)[nH]c(N)nc2n1C1OC2COP(=O)(O)OC2C1O (stereo not shown) [2G, 8-AET-cGMP] |  | 2.4 | 5.82 | 1.8 | pEC50 [2, 10]: 6.08
5 | CC(=O)NCCSc1nc2c(N)ncnc2n1C1OC2COP(=O)(O)OC2C1O (stereo not shown) [3A, 8-(Ac)AET-cAMP] |  | 2.3 | 5.39 | 1.8 | pEC50 [2, 10]: 5.00; H (Hill coefficient) [1]: 1.7; pEC50 [1]: 7.15
6 | CC(=O)NCCSc1nc2c(=O)[nH]c(N)nc2n1C1OC2COP(=O)(O)OC2C1O (stereo not shown) [3G, 8-(Ac)AET-cGMP] |  | 1.8 | 6.55 | 2.0 | pEC50 [2, 10]: 6.77
7 | NCCCCCCSc1nc2c(N)ncnc2n1C1OC2COP(=O)(O)OC2C1O (stereo not shown) [4A, 8-AHT-cAMP] | 5.51 | 2.3 | 5.85 | 2.5 | 
8 | NCCCCCCSc1nc2c(=O)[nH]c(N)nc2n1C1OC2COP(=O)(O)OC2C1O (stereo not shown) [4G, 8-AHT-cGMP] | 7.05 | 2.5 | 6.21 | 1.3 | 
9 | CC(=O)NCCCCCCSc1nc2c(N)ncnc2n1C1OC2COP(=O)(O)OC2C1O (stereo not shown) [5A, 8-(Ac)AHT-cAMP] | 5.85 | 3.1 | 6.02 | 2.5 | H (Hill coefficient) [1]: 0.8; pEC50 [1]: 7.71
10 | NCCCCCCCCCCSc1nc2c(N)ncnc2n1C1OC2COP(=O)(O)OC2C1O (stereo not shown) [6A, 8-ADT-cAMP] | 6.20 | 2.3 | 6.54 | 3.9 | effect at high concentration ([3]; CNGA2:CNGA4:CNGB1b channels, at concentrations > 2 µM): unusual inhibition
11 | NCCCCCCCCCCSc1nc2c(=O)[nH]c(N)nc2n1C1OC2COP(=O)(O)OC2C1O (stereo not shown) [6G, 8-ADT-cGMP] | 7.22 | 1.8 | 6.52 | 1.6 | 
12 | CC(=O)NCCCCCCCCCCSc1nc2c(=O)[nH]c(N)nc2n1C1OC2COP(=O)(O)OC2C1O (stereo not shown) [7G, 8-(Ac)ADT-cGMP] | 7.30 | 2.2 | 6.85 | 1.9 | 
13 | CC(=O)NCCOCCOCCSc1nc2c(=O)[nH]c(N)nc2n1C1OC2COP(=O)(O)OC2C1O (stereo not shown) [8G, 8-(Ac)APT-cGMP] | 6.26 | 2.7 | 5.96 | 1.6 | 
14 | CC(=O)NCCOCCOCCC(=O)NCCSc1nc2c(N)ncnc2n1C1OC2COP(=O)(O)OC2C1O (stereo not shown) [9A, 8-(Ac)APET-cAMP] | 4.34 | 2.3 | 5.15 | 2.2 | 
15 | CC(=O)NCCOCCOCCC(=O)NCCSc1nc2c(=O)[nH]c(N)nc2n1C1OC2COP(=O)(O)OC2C1O (stereo not shown) [9G, 8-(Ac)APET-cGMP] | 6.28 | 2.3 | 5.96 | 2.0 | 
16 | CC(=O)NCC(=O)NCCSc1nc2c(=O)[nH]c(N)nc2n1C1OC2COP(=O)(O)OC2C1O (stereo not shown) [10G, 8-(Ac)AGET-cGMP] | 6.47 | 2.6 | 6.20 | 1.9 | 
17 | CC(=O)NCC(=O)NCC(=O)NCCSc1nc2c(N)ncnc2n1C1OC2COP(=O)(O)OC2C1O (stereo not shown) [11A, 8-(Ac)AGGET-cAMP] | 4.53 | 1.9 | 5.29 | 2.5 | pEC50 [2, 10]: 4.53
18 | CC(=O)NCC(=O)NCC(=O)NCCSc1nc2c(=O)[nH]c(N)nc2n1C1OC2COP(=O)(O)OC2C1O (stereo not shown) [11G, 8-(Ac)AGGET-cGMP] | 6.48 | 2.4 | 6.00 | 1.7 | 
